From US9145372B2, “Pyridazine derivatives, compositions and methods for treating cognitive impairment” (AGENEBIO, INC., priority 2010, dated 2015)
“Also recorded” adds a separate entry of the source.

How the values were obtained:
[1] = system: aged-impaired (AI) rats; experiment: Radial Arm Maze (RAM) behavioral task, spatial memory retention; type: in vivo, rat; settings: four-hour delay RAM
Procedure: The effects of methyl 3,5-diphenylpyridazine-4-carboxylate on the in vivo spatial memory retention of aged-impaired (AI) rats were assessed in a Radial Arm Maze (RAM) behavioral task using vehicle control and four different dosage levels of methyl 3,5-diphenylpyridazine-4-carboxylate (0.1 mg/kg, 0.3 mg/kg, 1 mg/kg and 3 mg/kg, ip). RAM behavioral tasks were performed on eight AI rats. All five treatment conditions (vehicle and four dosage levels) were tested on all eight rats.
The RAM apparatus used consisted of eight equidistantly-spaced arms. An elevated maze arm (7 cm width×75 cm length) projected from each facet of an octagonal center platform (30 cm diameter, 51.5 cm height). Clear side walls on the arms were 10 cm high and were angled at 65° to form a trough. A food well (4 cm diameter, 2 cm deep) was located at the distal end of each arm. Froot Loops™ (Kellogg Company) were used as rewards. Blocks constructed of Plexiglas™ (30 cm height×12 cm width) could be positioned to prevent entry to any arm. Numerous extra maze cues surrounding the apparatus were also provided.
The AI rats were initially subjected to a pre-training test (Chappell et al. Neuropharmacology 37: 481-487, 1998). The pre-training test consisted of a habituation phase (4 days), a training phase on the standard win-shift task (18 days) and another training phase (14 days) in which a brief delay was imposed between presentation of a subset of arms designated by the experimenter (e.g., 5 arms available and 3 arms blocked) and completion of the eight-arm win-shift task (i.e., with all eight arms available).
In the habituation phase, rats were familiarized to the maze for an 8-minute session on four consecutive days. In each of these sessions, food rewards were scattered on the RAM, initially on the center platform and arms and then progressively confined to the arms. After this habituation phase, a standard training protocol was used, in which a food pellet was located at the end of each arm. Rats received one trial each day for 18 days. Each daily trial terminated when all eight food pellets had been obtained or when either 16 choices were made or 15 minutes had elapsed. After completion of this training phase, a second training phase was carried out in which the memory demand was increased by imposing a brief delay during the trial. At the beginning of each trial, three arms of the eight-arm maze were blocked. Rats were allowed to obtain food on the five arms to which access was permitted during this initial “information phase” of the trial. Rats were then removed from the maze for 60 seconds, during which time the barriers on the maze were removed, thus allowing access to all eight arms. […]

[2] = molecular target: GABAA α5 receptor (Rattus norvegicus, UniProt P18508+P19969); experiment: GABAA α5 receptor occupancy in vivo with Ro 15-4513 tracer (hippocampus vs cerebellum); settings: i.v.
Excerpt: Adult male Long Evans rats (265-295 g, Charles River, Portage, Mich., n=4/group) were used for GABAA α5 receptor occupancy studies. Rats were individually housed in ventilated stainless-steel racks on a 12:12 light/dark cycle. Food and water were available ad libitum.
Ro 15-4513 was used as a receptor occupancy (RO) tracer for GABAA α5 receptor sites in the hippocampus and cerebellum. Ro 15-4513 was chosen as the tracer based on its selectivity for GABAA α5 receptors relative to other alpha subunit containing GABAA receptors and because it has been successfully used for GABAA α5 RO studies in animals and humans (see, e.g., Lingford-Hughes et al., J. Cereb. Blood Flow Metab. 22:878-89 (2002); Pym et al, Br. J. Pharmacol. 146: 817-825 (2005); and Maeda et al., Synapse 47: 200-208 (2003)). Ro 15-4513 (1 μg/kg), was dissolved in 25% hydroxyl-propyl beta-cyclodextrin and administered i.v. 20′ prior to the RO evaluations. Methyl 3,5-diphenylpyridazine-4-carboxylate (0.1-10 mg/kg) was synthesized by Nox Pharmaceuticals (India) and was dissolved in 25% hydroxyl-propyl beta-cyclodextrin and administered i.v. 15′ prior to tracer injection.
The rats were sacrificed by cervical dislocation 20′ post tracer injection. The whole brain was rapidly removed, and lightly rinsed with sterile water. Trunk blood was collected in EDTA coated eppendorf tubes and stored on wet ice until study completion. Hippocampus and cerebellum were dissected and stored in 1.5 ml eppendorf tubes, and placed on wet ice until tissue extraction. In a drug naïve rat, six cortical brain tissues samples were collected for use in generating blank and standard curve samples.
Acetonitrile containing 0.1% formic acid was added to each sample at a volume of four times the weight of the tissue sample. For the standard curve (0.1-30 ng/g) samples, a calculated volume of standard reduced the volume of acetonitrile. The sample was homogenized (FastPrep-24, Lysing Matrix D; 5.5 m/s, for 60 seconds or 7-8 watts power using sonic probe dismembrator; Fisher Scientific) and centrifuged for 16-minutes at 14,000 rpm. The (100 μl) supernatant solution was diluted by 300 μl of sterile water (pH 6.5). This solution was then mixed thoroughly and analyzed via LC/MS/MS for […] (tracer) and methyl 3,5-diphenylpyridazine-4-carboxylate.
Receptor occupancy was determined by the ratio method which compared occupancy in the hippocampus (a region of high GABAA α5 receptor density) with occupancy in the cerebellum (a region with low GABAA α5 receptor density) and additionally by a high dose of the GABAA α5 negative allosteric modulator L-655,708 (10 mg/kg, i.v.) to define full occupancy.

[3] = system: aged-impaired (AI) rats; experiment: Morris water maze behavioral task after ICV infusion; type: in vivo, rat; settings: 100 μg ICV
Procedure: The effects of 6,6 dimethyl-3-(3-hydroxypropyl)thio-1-(thiazol-2-yl)-6,7-dihydro-2-benzothiophen-4(5H)-one on the in vivo spatial memory retention of aged-impaired (AI) rats were assessed in a Morris water maze behavioral task. A water maze is a pool surrounded with a novel set of patterns relative to the maze.
Cognitively impaired aged rats were implanted unilaterally with a cannula into the lateral ventricle. Stereotaxic coordinates were 1.0 mm posterior to bregma, 1.5 mm lateral to midline, and 3.5 mm ventral to the skull surface. After about a week of recovery, the rats were pre-trained in a water maze for 2 days (6 trials per day) to locate a submerged escape platform hidden underneath the surface of the pool, in which the escape platform location varied from day to day. No intracerebroventricular (ICV) infusion was given during pre-training
After pre-training, rats received ICV infusion of either 100 μg 6,6 dimethyl-3-(3-hydroxypropyl)thio-1-(thiazol-2-yl)-6,7-dihydro-2-benzothiophen-4(5H)-one (n=6) in 5 μl DMSO or vehicle DMSO (n=5) 40 min prior to water maze training and testing. Training consisted of 8 trials per day for 2 days where the hidden escape platform remained in the same location. Rats were given 60 seconds to locate the platform with a 60 seconds inter-trial interval. The rats were given a probe test (120 seconds) 24 hr after the end of training where the escape platform was removed. During the training, there were 4 blocks, where each block had 4 training trials.
Rats treated with vehicle and 6,6 dimethyl-3-(3-hydroxypropyl)thio-1-(thiazol-2-yl)-6,7-dihydro-2-benzothiophen-4(5H)-one found the escape platform about the same time at the beginning of training (block 1). In this block of training, rats treated with vehicle and 6,6 dimethyl-3-(3-hydroxypropyl)thio-1-(thiazol-2-yl)-6,7-dihydro-2-benzothiophen-4(5H)-one both spent about 24 seconds to find the escape platform. However, rats treated with 6,6 dimethyl-3-(3-hydroxypropyl)thio-1-(thiazol-2-yl)-6,7-dihydro-2-benzothiophen-4(5H)-one were able to find the platform more proficiently (i.e., quicker) at the end of training (block 4) than those treated with vehicle alone. In block 4, rats treated with 6,6 dimethyl-3-(3-hydroxypropyl)thio-1-(thiazol-2-yl)-6,7-dihydro-2-benzothiophen-4(5H)-one spent about 9.6 seconds to find the escape platform, while rats treated with vehicle spent about 19.69 seconds.
During a test trial 24 hr after training, the escape platform was removed. The search/swim pattern of the rats was used to measure whether the rats remember where the escape platform was located during pre-trial training in order to test for the long-term memory of the rats. […]

[4] = probe test 24 hr after training

GABAA α5 receptor, sequence (P19969 32-464 limits assumed): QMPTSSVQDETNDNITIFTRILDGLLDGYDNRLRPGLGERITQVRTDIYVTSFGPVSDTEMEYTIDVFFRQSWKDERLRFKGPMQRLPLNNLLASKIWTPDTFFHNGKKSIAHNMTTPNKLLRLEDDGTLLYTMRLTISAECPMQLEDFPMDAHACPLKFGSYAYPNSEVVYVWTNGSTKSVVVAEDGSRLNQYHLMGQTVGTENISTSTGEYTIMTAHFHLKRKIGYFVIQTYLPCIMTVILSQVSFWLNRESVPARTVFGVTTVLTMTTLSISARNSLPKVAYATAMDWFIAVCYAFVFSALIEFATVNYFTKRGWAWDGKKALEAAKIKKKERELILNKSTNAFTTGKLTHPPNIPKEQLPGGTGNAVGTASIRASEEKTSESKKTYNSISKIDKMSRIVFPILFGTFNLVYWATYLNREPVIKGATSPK
GABAA α5 receptor, sequence (P18508 39-466): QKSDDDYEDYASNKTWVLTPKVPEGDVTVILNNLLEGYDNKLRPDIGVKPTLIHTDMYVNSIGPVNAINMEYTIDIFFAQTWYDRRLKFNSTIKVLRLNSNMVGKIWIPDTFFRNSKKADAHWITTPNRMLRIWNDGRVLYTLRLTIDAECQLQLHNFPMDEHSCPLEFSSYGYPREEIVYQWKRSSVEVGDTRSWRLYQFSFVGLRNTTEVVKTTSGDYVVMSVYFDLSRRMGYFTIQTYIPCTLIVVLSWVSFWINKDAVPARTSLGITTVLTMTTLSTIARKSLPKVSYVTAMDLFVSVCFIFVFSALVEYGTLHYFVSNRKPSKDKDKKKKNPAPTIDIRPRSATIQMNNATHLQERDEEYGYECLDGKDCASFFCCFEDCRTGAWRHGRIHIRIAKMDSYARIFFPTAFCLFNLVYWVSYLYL
GABAA α5 receptor, sequence (P63079 26-473 partner): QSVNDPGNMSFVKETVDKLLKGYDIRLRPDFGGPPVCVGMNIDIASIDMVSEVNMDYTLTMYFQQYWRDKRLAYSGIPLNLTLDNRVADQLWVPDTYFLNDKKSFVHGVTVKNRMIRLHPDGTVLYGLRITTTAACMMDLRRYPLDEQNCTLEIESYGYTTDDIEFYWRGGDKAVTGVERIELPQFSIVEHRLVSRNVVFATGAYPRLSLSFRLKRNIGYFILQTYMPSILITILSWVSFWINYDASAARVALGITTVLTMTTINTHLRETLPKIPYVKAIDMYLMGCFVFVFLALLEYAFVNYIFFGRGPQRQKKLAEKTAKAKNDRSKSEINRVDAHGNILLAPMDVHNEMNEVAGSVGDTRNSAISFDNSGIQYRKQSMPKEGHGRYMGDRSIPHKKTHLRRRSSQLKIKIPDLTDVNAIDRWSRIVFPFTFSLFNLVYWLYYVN

In the case of `CCOC(=O)c1ncn2c1Cn1c(C)nnc1-c1cc(OC)ccc1-2` [ethyl 3-methoxy-7-methyl-9H-benzo[f]imidazo[1,5-a][1,2,4]triazolo[4,3-d][1,4]diazepine-10-carboxylate], the “memory performance relative to vehicle control” value ([1]; 3 mg/kg) is reported as “significantly improved memory performance”, the “memory performance relative to vehicle control” value ([1]; 10 mg/kg) is reported as “significantly improved memory performance” and the “Ro 15-4513 binding in hippocampus” value ([2]; 0.01-10 mg/kg) is reported as “blocked; also recorded: reduced”. For the same compound, the “cerebellum levels (binding) of Ro 15-4513” value ([2]; 0.01-10 mg/kg) was “did not affect; also recorded: without affecting” and the “GABAA α5 receptor occupancy” value ([2]; 10 mg/kg) was greater than 90%.

With `CC1(C)CC(=O)c2c(SCCCO)sc(-c3nccs3)c2C1` [6,6 dimethyl-3-(3-hydroxypropyl)thio-1-(thiazol-2-yl)-6,7-dihydro-2-benzothiophen-4(5H)-one] the “time to find the escape platform (escape latency), block 1” value ([3]; beginning of training) was “about 24 seconds”, the “time to find the escape platform (escape latency), block 4” value ([3]; end of training) was “about 9.6 seconds” and the “number of crossings of target annulus compared to opposite annulus” value [3, 4] was “more often”. For the same compound, the “time in target annulus compared to opposite annulus” value [3, 4] was “significantly more time in the target annulus”.
